What was measured:
Assay type in all cases: cell-based
[1] = test system: Human lymphoma jurkat cells; test: Killing of cultured Jurkats with and without anti-Fas (propidium iodide, Facs); conditions: 19 hours
Experimental: Jurkats are a T-cell derived lymphoma cell line which expresses both FAS receptor and Fas-L. These cells, however, are only mildly sensitive to Fas-L/anti-Fas induced apoptosis. Select compounds were tested for their ability to kill jurkats. Additionally, we investigated the ability of select compounds to sensitize jurkats to anti-Fas mediated apoptosis.
Human lymphoma jurkat cells were cultured in suspension in 24 well plates. Jurkat cell were treated with test compounds either alone or in the presence of suboptimal doses of anti-Fas antibody. […] Cells were incubated with propidium iodide and the percentage of cells that incorporated the stain was counted by Facs.

[2] = test system: Human prostate DU145 cells; test: Killing of DU145 prostate cancer cells (Alamar Blue, 7 day treatment)
Experimental: Prostate cancer is often resistant to traditional chemotherapies. DU145 is representative prostated cancer cell line. DU145 cells were cultured in the presence of various concentrations of compound 136. Compound 136 kills 100% of the cells at 10 μM, with an IC50 of approximately 7 μM.
Human prostate DU145 cells were cultured in 96 well dishes. Cells were treated with various concentrations of test compounds for 7 days. Media was then removed and replaced with fresh media containing Alamar Blue. The cells were incubated for a further 4 hours and Alamar blue and conversion was assessed by fluorescence. Compound effectiveness was determined by assessing the reduction in Alamar blue bioconversion following 7 day treatment.

Human lung H460 cells = test: Killing of H460 cells (Alamar Blue, 24 hour treatment)
Experimental: H460 is representative of a […] cancer cell line.
Human lung H460 cells (7000 cells/well) were cultured in 96 well dishes. Cells were treated with various concentrations of test compounds for 24 hours. Media was then removed and replaced with fresh media containing Alamar Blue. The cells were incubated for a further 4 hours and Alamar blue and conversion was assessed by fluorescence. Compound effectiveness was determined by assessing the reduction in Alamar blue bioconversion following 24 hour treatment.

[3] = Dose 0.3, with anti-Fas (5 ng/mL)
[4] = Dose 1, with anti-Fas (5 ng/mL)
[5] = Dose 3, with anti-Fas (5 ng/mL)
[6] = Dose 10, with anti-Fas (5 ng/mL)
[7] = Dose 30, with anti-Fas (5 ng/mL)

Molecule	Survival % Without Anti-Fas ([1]; Dose 3 (μM))	Survival % With Anti-Fas [1, 5]	Survival % Without Anti-Fas ([1]; Dose 10 (μM))	Survival % With Anti-Fas [1, 6]	further results
3-(3-(amidinothio)propyl)indol-1-yl)-4-(5-benzyloxy-1-methylindol-3-yl)-4-pyrrole-2,5-dione [Example 168]	46%	1%	1%	0%	Survival % Without Anti-Fas ([1]; Dose 0.3 (μM)): 91%; Survival % With Anti-Fas [1, 3]: 49%; Survival % Without Anti-Fas ([1]; Dose 1 (μM)): 89%; Survival % With Anti-Fas [1, 4]: 49%; Survival % Without Anti-Fas ([1]; Dose 30 (μM)): 0%; Survival % With Anti-Fas [1, 7]: 0%
CN(C)CCCn1cc(C2=C(n3ccc4ccccc43)C(=O)NC2=O)c2cc(OCc3ccccc3)ccc21 [Example 136, 3-(5-benzyloxy-1-(3-dimethylaminopropyl)indol-3-yl)-4-(indol-1-yl)-pyrrole-2,5-dione]	–	–	–	–	cells killed ([2]; 10 μM): 100%; IC50 ([2]; Homo sapiens, DU-145, 168 h, 7 days of treatment): ~7 µM
N=C(N)SCCCn1c2ccccc2c2c3c(n4c5ccccc5cc4c21)C(=O)NC3=O [Example 145]	93%	35%	11%	–	–
Cc1cn(C2=C(c3cn(CCCSC(=N)N)c4ccccc34)C(=O)NC2=O)c2ccccc12 [Example 146, 3-(3-((amidiothio)propyl)indol-3-yl)-4-(3-methylindol-1-yl)-pyrrole-2,5-dione]	>90%	20%	0%	–	–
N=C(N)SCCCn1cc(C2=C(n3ccc4cc(OCc5ccccc5)ccc43)C(=O)NC2=O)c2ccccc21 [Example 147, 3-(3-((amidiothio)propyl)indol-3-yl)-4-(5-benzyloxyindol-1-yl)-pyrrole-2,5-dione]	>90%	20%	0%	–	–
N=C(N)SCCCn1cc(C2=C(n3ccc4ccccc43)C(=O)NC2=O)c2cc(OCc3ccccc3)ccc21 [Example 148, 3-(3-((amidiothio)propyl)-5-benzyloxyindol-3-yl)-4-(indol-1-yl)-pyrrole-2,5-dione]	>90%	–	0%	20%	–
Cc1cn(C2=C(c3cn(CCCSC(=N)N)c4ccc(OCc5ccccc5)cc34)C(=O)NC2=O)c2ccccc12 [Example 149, 3-(3-((amidiothio)propyl)-5-benzyloxyindol-3-yl)-4-(3-methylindol-1-yl)-pyrrole-2,5-dione]	>90%	2%	0%	–	–
Cc1cc2ccccc2n1C1=C(c2cn(CCCSC(=N)N)c3ccc(OCc4ccccc4)cc23)C(=O)NC1=O [Example 150, 3-(3-((amidiothio)propyl)-5-benzyloxyindol-3-yl)-4-(2-methylindol-1-yl)-pyrrole-2,5-dione]	>90%	5%	0%	–	–
N=C(N)SCCCn1cc(C2=C(N3CCc4ccccc43)C(=O)NC2=O)c2ccccc21 [Example 159, 3-(3-((amidiothio)propyl)indol-3-yl)-4-(indolin-1-yl)-pyrrole-2,5-dione]	>90%	10%	17%	–	–
Cn1cc(C2=C(n3cc(CCCSC(=N)N)c4ccccc43)C(=O)NC2=O)c2ccccc21 [Example 167]	50%	5%	0%	0%	Survival % Without Anti-Fas ([1]; Dose 0.3 (μM)): 98%; Survival % With Anti-Fas [1, 3]: 43%; Survival % Without Anti-Fas ([1]; Dose 1 (μM)): 88%; Survival % With Anti-Fas [1, 4]: 17%; Survival % Without Anti-Fas ([1]; Dose 30 (μM)): 0%; Survival % With Anti-Fas [1, 7]: 0%; IC50 (Human lung H460 cells): ~3000 nM

From patent US20060199835A1, “Neuroprotective and anti-proliferative compounds” (priority 2004, published 2006)
